{"source": "patent US10913068B2", "about": "“Testing device, microfluidic chip and nucleic acid testing method” (Nanyang Technological University, priority 2015, dated 2021)", "key": {"ALT mRNA [1]": {"tested_on": "ALT mRNA", "details": "for mean Ct (± S.D.), ALT: 3× dosage", "protocol": "(§1) A short-term (5 days) preclinical drug toxicity experiment was performed on common black laboratory mice (Strain name: C57BL/6J; Age: 5-7 weeks). All experiments were performed in accordance with the National Institutes of Health Guide for the care and use of laboratory animals (NIH Publications No. 80-23, revised 1996) and conducted after approval by the Institutional Animal Care and Use Committee of Houston Methodist Research Institute (HMRI).\n(§2) A total of eight mice were divided into two equal groups, with one mouse in each group designated as the control and the remaining three subjected to drug treatment. […] The drug was administered through intraperitoneal route, with the first group having a single dose administered on the 1st day only; and the second group having 3 doses administered on the 1st, 3rd and 5th days. The animals were subsequently euthanized following standard carbon dioxide anaesthesia procedure on the 5th day after final drug administration. The mouse liver tissues were thereafter silated, and cut into equal small pieces (˜20-30 mg) and stored in RNAlater RNA Stabilization Reagent (QIAGEN®, USA) at 4° C. to prevent RNA degradation.\n(§3) Once the purified mRNA had been extracted from the liver tissue samples, 30 μL of the purified mRNA extract (i.e. elution buffer with the microbeads) was collected in an EPPENDORF® tube containing the following RT-PCR composition: 75 μL 2× SYBR Green RT-PCR reaction mix (BIORAD®, Singapore), 3.0 μL iSCRIPT™ One-Step RT-PCR reverse transcriptase (BIORAD®, Singapore) and 42 μL nuclease-free water. This 150 μL final RT-PCR assay was subsequently transferred from the EPPENDORF® tube into a 250 μL HAMILTON® glass syringe connected to the RT-PCR microfluidic chip via a 1/32″ OD tubing.\n(§4) The chip-compatible thermal cycler was based on the open-source OpenPCR® (Chai Biotechnologies, USA) platform, using a custom-designed aluminium metal block for contact-based thermal cycling and an ARDUINO® microcontroller for precise temperature control (see FIG. 17—schematic diagram 1700 illustrating the multiplex microfluidic real-time RT-PCR setup).\n(§5) To provide a benchmark reference to the chip disclosed herein, the same RT-PCR assays (with addition of forward/reverse primers at 0.5 μM concentration) were amplified separately in EPPENDORF® tubes on a conventional CFX96 TOUCH™ Real-Time PCR Detection System (BIORAD®, USA).\n(§6) The thermal cycling process was as follows: 70° C. for 2 mins to allow dehybridization of the captured mRNA from the microbeads, followed by 50° C. for 10 minutes for reverse transcription, subsequently with an initial denaturation step of 95° C. for 5 mins and finally 35 cycles of PCR, comprising two stages: denaturation at 95° C. for 10 s and annealing/extension at 55° C. for 30 s.\n(§7) To enable simultaneous fluorescent detection of amplified cDNA for a fully-quantitative methodology, the inventors developed an image capturing system embodying a camera module with blue excitation LEDs to be mounted on the chip-compatible thermal cycler disclosed herein (FIG. 19—RT-PCR and fluorescent detection setup 1900). A 3MP CMOS camera with mounted 550 nm longpass optical filter (ISLAND OPTICAL SYSTEMS®, Singapore) was fitted onto a black opaque acrylic frame with a 470 nm blue LED module (IORODEO®, USA) to provide an excitation source for the SYBR Green 1 fluorescent dye present in the RT-PCR assay. The blue LED module was affixed at an angle of ˜45° to the plane of the microfluidic chip to minimize excitation light interference on the captured light pathway of the camera unit."}, "[2]": {"tested_on": "β-actin mRNA (housekeeping gene)", "details": "3× dosage; conventional qPCR machine CFX96 Touch; control 22.93 ± 0.11", "protocol": "as §1, §2, §3, §4, §5, §6, §7"}, "AST mRNA [3]": {"tested_on": "AST mRNA", "details": "for mean Ct (± S.D.), AST: 3× dosage", "protocol": "as §1, §2, §3, §4, §5, §6, §7"}, "ALT mRNA [4]": {"tested_on": "ALT mRNA", "details": "mouse liver tissue", "protocol": "as §1, §2\n(§8) A liver tissue sample, weighing approximately 20-30 mg, was loaded directly into the tissue lysis chamber. The tissue sample was secured within the chamber when the tissue microhomogenizer attachment was fitted into the opening of the lysis chamber. Subsequently, 250 μL Lysis/Binding buffer was loaded into another 250 μL glass syringe (see FIG. 16, Sample Inlet), and actuated into the tissue lysis chamber at a flow rate of 200 μL/min. For tissue lysis, the microhomogenizer attachment was activated for ˜1 min to allow the liver tissue to be shredded and homogenized. After the completion of tissue lysis, the unwanted tissue debris and supernatant were removed by the micro-pillars as the homogenized tissue lysate was actuated into the mixing chamber, where the lysate was mixed with the microbeads for ˜8 mins to allow for mRNA binding.\n(§9) The purified mRNA from each mouse liver tissue sample was collected in an EPPENDORF® tube preloaded with an RT-PCR master mix. To validate the efficacy of our sample preparation microfluidic chip, purified mRNA solutions extracted using our microfluidic chip was tested for their purity using the NANODROP™ 2000 (THERMOSCIENTIFIC®, Singapore), to ensure an A260/280 ratio of ˜2.0-2.2 before proceeding to the subsequent downstream applications of RT-PCR and nucleic acid detection.\nas §3\n(§10) The chip-compatible thermal cycler was based on the open-source OpenPCR® (Chai Biotechnologies, USA) platform, using a custom-designed aluminium metal block for contact-based thermal cycling and an ARDUINO® microcontroller for precise temperature control (see FIG. 17—schematic diagram 1700 illustrating the multiplex microfluidic real-time RT-PCR setup). […]"}, "[5]": {"tested_on": "β-actin mRNA (housekeeping gene)", "details": "after 1× and 3× drug dosage (200 mg/kg body wt.); mouse liver tissue", "protocol": "as §1, §2, §8, §9, §3, §10"}, "AST mRNA [6]": {"tested_on": "AST mRNA", "details": "mouse liver tissue", "protocol": "as §1, §2, §8, §9, §3, §10"}, "[7]": {"details": "3× dosage vs untreated control, Livak ΔΔCt method, normalized to β-actin, microfluidic data"}, "[8]": {"details": "1× drug dosage (200 mg/kg body wt., intraperitoneal, day 1 only)"}, "[9]": {"details": "3× drug dosage (200 mg/kg body wt., intraperitoneal, days 1, 3, 5), normalized to untreated control"}}, "note": "“And” between values parts separate entries of the source, which are not always exact repeats. Identical values can stand only once. Like-named read-outs stand apart in the source and are kept apart here."}
{"compound": "O=P1(N(CCCl)CCCl)NCCCO1", "note": "(stereo not drawn) [cyclophosphamide]", "values": [{"measurement": "normalized fold change (up-regulation) for ALT", "setting": "ALT mRNA [1]; [7]", "value": 1.31, "unit": "fold"}, {"measurement": "mean Ct (± S.D.), ALT", "setting": "ALT mRNA [1]; Microfluidic Chip, control 28.8 ± 0.2", "value": "28.5 and 28.5 ± 0.3"}, {"measurement": "mean Ct (± S.D.), ALT", "setting": "ALT mRNA [1]; conventional qPCR machine CFX96 Touch, control 27.28 ± 0.10", "value": "26.75 ± 0.07"}, {"measurement": "mean Ct (± S.D.), β-actin", "setting": "[2]", "value": "23.02 ± 0.08"}, {"measurement": "normalized fold change (up-regulation) for AST", "setting": "AST mRNA [3]; [7]", "value": 1.62, "unit": "fold"}, {"measurement": "mean Ct (± S.D.), AST", "setting": "AST mRNA [3]; Microfluidic Chip, control 20.5 ± 0.2", "value": "19.9 and 19.9 ± 0.2"}, {"measurement": "mean Ct (± S.D.), AST", "setting": "AST mRNA [3]; conventional qPCR machine CFX96 Touch, control 20.07 ± 0.02", "value": "19.34 ± 0.05"}, {"measurement": "difference in final cDNA concentration (ALT) compared to untreated control", "setting": "ALT mRNA [4]; [8]", "value": "no significant difference"}, {"measurement": "increase in final cDNA concentration for ALT", "setting": "ALT mRNA [4]; [9]", "value": 33.3, "unit": "%"}, {"measurement": "β-actin mRNA expression levels", "setting": "[5]", "value": "remained relatively unchanged"}, {"measurement": "difference in final cDNA concentration (AST) compared to untreated control", "setting": "AST mRNA [6]; [8]", "value": "no significant difference"}, {"measurement": "increase in final cDNA concentration for AST", "setting": "AST mRNA [6]; [9]", "value": 58.7, "unit": "%"}]}
